In patent publication US10723741B1, “DNA polymerase IIIC inhibitors and use thereof” (Acurx Pharmaceuticals, LLC, priority 2018, dated 2020) one finds Ki data, which are given here for 15 molecules.

Structures are written as SMILES.

For this assay, the target named is T1, Staphylococcus aureus DNA pol IIIC enzyme (Staphylococcus aureus, UniProt Q5HGG7).
T1 construct: The recombinant protein had full length of original protein and a His tag, a thrombin site and a T7 tag at N-terminus; His tag (N); thrombin site (N); T7 tag (N); made in house; host or cells: E. coli BL21 (DE3), plasmid pET-28a(+)
T1 sequence (Q5HGG7 1-1438): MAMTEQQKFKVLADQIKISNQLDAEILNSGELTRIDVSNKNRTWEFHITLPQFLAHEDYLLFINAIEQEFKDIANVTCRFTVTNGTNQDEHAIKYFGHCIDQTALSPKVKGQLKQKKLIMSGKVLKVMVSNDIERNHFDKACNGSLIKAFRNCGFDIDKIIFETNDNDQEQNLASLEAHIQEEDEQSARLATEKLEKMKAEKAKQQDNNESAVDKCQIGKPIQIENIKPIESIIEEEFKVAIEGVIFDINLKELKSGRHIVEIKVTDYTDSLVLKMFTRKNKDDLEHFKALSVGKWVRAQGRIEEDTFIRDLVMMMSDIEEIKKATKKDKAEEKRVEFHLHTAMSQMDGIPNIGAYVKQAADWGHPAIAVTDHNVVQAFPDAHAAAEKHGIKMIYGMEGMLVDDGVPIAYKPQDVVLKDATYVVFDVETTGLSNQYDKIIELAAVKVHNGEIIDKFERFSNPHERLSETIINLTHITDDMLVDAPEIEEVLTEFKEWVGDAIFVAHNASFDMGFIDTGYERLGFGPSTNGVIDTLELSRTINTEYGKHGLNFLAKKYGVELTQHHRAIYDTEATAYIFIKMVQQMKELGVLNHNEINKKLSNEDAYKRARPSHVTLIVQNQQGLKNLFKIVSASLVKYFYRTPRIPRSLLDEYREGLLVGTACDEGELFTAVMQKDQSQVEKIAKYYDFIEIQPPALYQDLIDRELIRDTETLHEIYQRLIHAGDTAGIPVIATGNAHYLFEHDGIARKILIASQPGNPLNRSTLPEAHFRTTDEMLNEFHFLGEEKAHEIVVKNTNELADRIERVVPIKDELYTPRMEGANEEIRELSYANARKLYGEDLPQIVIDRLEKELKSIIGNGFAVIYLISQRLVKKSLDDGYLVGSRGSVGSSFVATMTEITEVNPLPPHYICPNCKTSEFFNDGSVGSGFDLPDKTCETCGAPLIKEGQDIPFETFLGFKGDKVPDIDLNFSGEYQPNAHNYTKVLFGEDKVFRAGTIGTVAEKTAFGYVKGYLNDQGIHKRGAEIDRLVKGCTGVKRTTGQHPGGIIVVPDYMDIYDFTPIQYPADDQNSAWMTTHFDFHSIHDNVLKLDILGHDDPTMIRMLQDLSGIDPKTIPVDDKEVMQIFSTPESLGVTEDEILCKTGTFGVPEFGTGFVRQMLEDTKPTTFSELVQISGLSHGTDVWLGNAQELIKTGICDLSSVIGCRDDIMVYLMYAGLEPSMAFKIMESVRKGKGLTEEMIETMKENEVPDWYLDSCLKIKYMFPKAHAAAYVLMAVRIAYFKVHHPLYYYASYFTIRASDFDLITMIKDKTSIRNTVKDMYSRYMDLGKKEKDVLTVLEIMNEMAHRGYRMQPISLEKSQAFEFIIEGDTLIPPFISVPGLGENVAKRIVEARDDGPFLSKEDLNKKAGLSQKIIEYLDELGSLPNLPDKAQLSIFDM
The experiment in a line: Ki assay for DNA polymerase IIIC (3H-dTTP incorporation, truncated assay). Type of assay: biochemical. The conditions noted are these: Ki = concentration giving 50% inhibition of control activity; range stated for the listed group; read-out: Ki against Staphylococcus aureus DNA pol IIIC enzyme. The source says:
The ability of a compound to inhibit the activity of DNA pol IIIC enzyme can be tested by using a DNA polymerase assay as described, for example, in Barnes and Brown, Nucl. Acids Res. 1979, 6, 1203-1219; Trantolo et al., J. Med. Chem. 1986, 29, 676-681; Mills et al., J. Bacterial. 1977, 132, 641-649; Low et al., J. Biol. Chem. 1976, 251, 1311-1325. This rapid screening method can use natural or recombinant DNA pol III enzymes in a standard DNA polymerase activity assay. By including a test compound in a side-by-side assay with a control, the effect of the test compound on polymerase activity can be assessed. Compounds with an appropriate level (Ki<[…]) of inhibition of the natural or recombinant bacterial DNA polymerase III are preferred.
The DNA polymerase IIIC coding genes were amplified from genomic DNA. The primers were designed so the 5′-terminal and 3′-terminal contain BamHI and XhoI cutting site respectively. The fragment was directly inserted into expression plasmid pET-28a(+) between BamHI and XhoI sites. The recombinant protein had full length of original protein and a His tag, a thrombin site and a T7 tag at N-terminus. The coding sequence of recombinant protein was confirmed by Sanger sequencing using 8 primers to cover the entire coding regions.
The plasmid was transferred into BL21 (DE3) competent E. coli cells. The positive colonies were inoculated into 1 L LB medium and incubated at 37° C. with 200 rpm rotation to reach OD600=0.6. The inducer IPTG 1 mM was then added to induce the expression for 18 hours at 16° C. The cells were harvested and suspended in lysis buffer (25 mM Tris-HCl pH=7.5, 0.15 M NaCl, 20 mM imidazole, 2 mM β-mecaptoethanol and 1×Roche proteinase inhibitor cocktail). The cells were lyzed by sonication, and the debris was spun down at 50000 g for 1 hour.
The protein was isolated first by passing through the lysate through Ni column. The column was washed with 50 column volume (CV) binding buffer (lysis buffer without proteinase inhibitor) and then 10 CVs of washing buffer (binding buffer with total 40 mM imidazole). The protein was eluted out with elusion buffer (binding buffer with total 300 mM imidazole).
The crude extract was then further purified by size exclusion chromatography using a Superdex 200 increase 10/300 column with 25 mM Tris-HCl pH 7.5, 0.15 M NaCl, 5% Glycerol and 1 mM DTT. The final product was stored as 50-100 μL aliquots at −80° C.
The compounds were dissolved in DMSO to 1 mg/ml (or 10 mg/ml) as compound working solution. On the day of the test, […] of DMSO was added into well A, and 100 μL of DMSO was added into wells B through well H in a round bottom 96 well plate (Corning-3788). An aliquot of 20 μL compound working solution was added into well A and mixed by pipetting. From well A, […] solution was transferred to well B and mixed by pipetting to make a 3 x dilution. The procedure was repeated for well B to well C, and so forth until well G. Well H contained DMSO only. This generated a serial of compound working solutions with concentrations at 100, 33.3, 11.1, 3.7, 1.2, 0.4, 0.14, and 0 μg/ml in pure DMSO. This was deemed the ‘mother plate’.
Using a 96-head pipette station (CyBio), 1 μL compound working solutions were transferred from the mother plate into an identical 96-well plate. This was the ‘testing plate’. The testing plate was kept at room temperature.
The enzyme (DNA polymerase IIIC) samples were taken out from −80° C. freezer. It was thawed and kept on ice. The enzyme was diluted to 0.025-0.06 U/μL with dilution buffer (25 mM Tris-HCl, pH=7.5, 0.15M NaCl, 5% Glycerol, 1 mM DTT). One unit of enzyme is defined as the amount of enzyme could incorporate 250 μmole of dTTP in 30 minutes in a standard assay (with the presence of all nucleotide as substrate, in contrast to “truncated assay” from which dGTP was omitted) in the same system. The diluted enzymes were added into a new 96-well plate (Corning-3788) 20 μL per well. This plate was kept on ice. […]

Consider `C=CCn1ncc2nc(NCc3ccc(Cl)c(Cl)c3)[nH]c(=O)c21` [Compound 56, 1-allyl-5-((3,4-dichlorobenzyl)amino)-1H-pyrazolo[4,3-d]pyrimidin-7(6H)-one], for which the inhibitory constant (Ki) (as a rule, the equilibrium dissociation constant of an inhibitor or competing ligand from its target) lay in the range of 53 to 1000 nM.
As for `O=c1[nH]c(NCc2ccc(Cl)c(Cl)c2)nc2cnn(C3CC3)c12` [Compound 213, 1-Cyclopropyl-5-((3,4-dichlorobenzyl)amino)-1H-pyrazolo[4,3-d]pyrimidin-7(6H)-one], the inhibitory constant (Ki) was 53 to 1000 nM.
Turning to `COCCn1ncc2nc(NCc3ccc(Cl)c(Cl)c3)[nH]c(=O)c21` [Compound 126, 5-((3,4-dichlorobenzyl)amino)-1-(2-methoxyethyl)-1H-pyrazolo[4,3-d]pyrimidin-7(6H)-one], the Ki is 53 to 1000 nM.
The result for `COC(=O)CCCCn1ncc2nc(NCc3ccc(Cl)c(Cl)c3)[nH]c(=O)c21` [Compound 218, methyl 5-[5-[(3,4-dichlorophenyl)methylamino]-7-oxo-6H-pyrazolo[4,3-d]pyrimidin-1-yl]pentanoate] reads 53 to 1000 nM; that for `O=C([C@@H](O)[C@H](O)CO)N1CCC(n2ncc3nc(NCc4ccc(Cl)c(Cl)c4)[nH]c(=O)c32)CC1` [Compound 276, 5-((3,4-dichlorobenzyl)amino)-1-(1-((2S,3R)-2,3,4-trihydroxybutanoyl)piperidin-4-yl)-1H-pyrazolo[4,3-d]pyrimidin-7(6H)-one], 53 to 1000 nM.
Turning to `Cn1ncc2nc(NCc3ccc(Cl)c(Cl)c3)[nH]c(=O)c21` [Compound 2, 5-((3,4-Dichlorobenzyl)amino)-1-methyl-1H-pyrazolo[4,3-d]pyrimidin-7(6H)-one], the Ki lay within 53 to 1000 nM.
For `O=c1[nH]c(NCc2ccc(Cl)c(Cl)c2)nc2cnn(C3CCCC3)c12` [Compound 214, 1-cyclopentyl-5-((3,4-dichlorobenzyl)amino)-1H-pyrazolo[4,3-d]pyrimidin-7(6H)-one] the value was 53 to 1000 nM.
The result for `Cl.O=c1[nH]c(NCc2ccc(Cl)c(Cl)c2)nc2cnn(CC3CNCCO3)c12` (stereo not drawn) [Compound 149, 5-((3,4-dichlorobenzyl)amino)-1-(morpholin-2-ylmethyl)-1H-pyrazolo[4,3-d]pyrimidin-7(6H)-one hydrochloride] reads 53 to 1000 nM.
The result for `O=c1[nH]c(NCc2ccc(Cl)c(Cl)c2)nc2cnn(-c3ccccc3)c12` [Compound 212, 5-[(3,4-dichlorophenyl)methylamino]-1-phenyl-6H-pyrazolo[4,3-d]pyrimidin-7-one] reads 53 to 1000 nM.
Consider `Cl.O=c1[nH]c(NCc2ccc(Cl)c(Cl)c2)nc2cnn(C3CCN(C4CCOCC4)CC3)c12` [Compound 242, 5-((3,4-dichlorobenzyl)amino)-1-(1-(tetrahydro-2H-pyran-4-yl)piperidin-4-yl)-1H-pyrazolo[4,3-d]pyrimidin-7(6H)-one hydrochloride], for which the Ki is 53 to 1000 nM.
For `O=C(O)CCC(=O)N1CCC(n2ncc3nc(NCc4ccc(Cl)c(Cl)c4)[nH]c(=O)c32)CC1` [Compound 273, 4-(4-(5-((3,4-dichlorobenzyl)amino)-7-oxo-6,7-dihydro-1H-pyrazolo[4,3-d]pyrimidin-1-yl)piperidin-1-yl)-4-oxobutanoic Acid] the value was 53 to 1000 nM.
For `Cl.Cl.O=c1[nH]c(NCc2ccc(Cl)c(Cl)c2)nc2cnn(CCOCCN3CCNCC3)c12` [Compound 167, 5-[(3,4-dichlorophenyl)methylamino]-1-[2-(2-piperazin-1-ylethoxy)ethyl]-6H-pyrazolo[4,3-d]pyrimidin-7-one] the value was 53 to 1000 nM; for `O=c1[nH]c(NCc2ccc(Cl)c(Cl)c2)nc2cn[nH]c12` [Compound 77, 5-((3,4-dichlorobenzyl)amino)-1H-pyrazolo[4,3-d]pyrimidin-7(6H)-one], 53 to 1000 nM; for `Cc1nn(C)c2c(=O)[nH]c(NCc3ccc(Cl)c(Cl)c3)nc12` [Compound 44, 5-((3,4-dichlorobenzyl)amino)-1,3-dimethyl-1H-pyrazolo[4,3-d]pyrimidin-7(6H)-one], 53 to 1000 nM.
For `CN(C)CCOCCn1ncc2nc(NCc3ccc(Cl)c(Cl)c3)[nH]c(=O)c21.Cl` [Compound 211, 5-((3,4-dichlorobenzyl)amino)-1-(2-(2-(dimethylamino)ethoxy)ethyl)-1H-pyrazolo[4,3-d]pyrimidin-7(6H)-one hydrochloride] the value was 53 to 1000 nM.
